From patent US9820943B2, “Micronized amoxicillin” (DSM SINOCHEM PHARMACEUTICALS NETHERLANDS B.V., priority 2013, dated 2017)

Columns and labels:
Format in all cases: physicochemical
[1] = Particle size distribution by laser diffraction (Malvern); details: trihydrate
Protocol: Particle size distribution values D10, D50, D90 and D100 were determined using laser diffraction applying Malvern equipment. A suitable apparatus for determining D10, D50, D90 and D100 is a Malvern particle sizer 2600 C or a Malvern Zeta Sizer.
(§1) Parameters operated were: • Augar Speed: 5-90 rpm • Primary Air Pressure: 2-8 kg·cm^−2 • Secondary Air Pressure: 4-10 kg·cm^−2 The surface area (in triplicate), average particle size and contact angle (in quadruplicate) were determined as outlined in the General section. The purity of the amoxicillin trihydrate samples was 99.4±0.3% and were void of dichloromethane, isopropanol, pivalic acid and triethyl amine.

[2] = Powder dissolution, USP/NF paddle method with HPLC analysis; details: 500 mg in 900 mL water, 37 °C, 75 rpm; for Amoxicillin released in solution Mean: mean of 3; for Amoxicillin released in solution #1: replicate #1; for Amoxicillin released in solution #2: replicate #2; for Amoxicillin released in solution #3: replicate #3
Protocol: Dissolution analysis of amoxicillin trihydrate powder samples was carried out using the USP/NF paddle method at a rotational speed of 75 rpm. Ultrapure ELGA laboratory water (900 mL) was used as dissolution medium. Media were equilibrated to 37.0±0.5° C. prior to dissolution. Amoxicillin trihydrate sample powder (500 mg) was directly added to the dissolution apparatus (Electrolab USP-24, India). Samples were collected at 0, 1, 3, 5, 10, 15, 30, 60 and 90 min, filtered through 0.2 μm filters and analyzed by HPLC. Dissolution profiles were constructed by plotting the percentage amoxicillin released against time.
The HPLC system (Shimadzu Corporation, Kyoto, Japan) comprised of an SCL-10A VP system controller, LC-10AT VP liquid chromatograph, FCV-10AL VP flow control valve, DGU-14A degasser, SIL-10AD VP auto-injector, CTO-10AS VP column oven, SPD-M20A prominence diode array (PDA) detector and data acquisition Class-VP 6.10 software. The HPLC method was adopted from the United States Pharmacopoeia (USP). The method was validated for linearity, precision, accuracy and intra- and inter-day variability. The mobile phase was 50 mM monobasic potassium phosphate:methanol (96:4, v/v, pH 5.0). All analyses were carried out using Lichrospher® 100 RP-18e analytical column (5 μm, Merck KGaA, Darmstadt, Germany) under isocratic conditions at a flow rate of 1.0 mL·min^−1 at 25° C. with 20 μL injection volume. Effluent was monitored at a wavelength of 230 nm. Samples for calibration curve generation were prepared in 50 mM monobasic potassium phosphate:methanol 1:1 (v/v) proportion at a concentration range of 1 to 600 μg·mL^−1.
The three non-micronized (i.e. entries 1-3 of Table 1) and micronized (i.e. entries 4-6 of Table 1) amoxicillin trihydrate samples of Example 1 were subjected to a powder dissolution test (in triplicate) as outlined in the General section.

[3] = Specific powder surface area by nitrogen gas sorption (BET); details: triplicate, trihydrate
Protocol: Specific powder surface area was determined using nitrogen gas sorption (Smartsorb, Smart Instruments, Mumbai, India). Prior to measurements, samples were regenerated by degassing to remove moisture and contamination. The regenerated sample was dipped in liquid nitrogen and the quantity of the adsorbed gas was measured using a thermal conductivity detector and subsequently integrated using an electronic circuit in terms of counts. The instrument was calibrated by injecting a known quantity of nitrogen. The measured parameters were subsequently used to calculate the surface area of the sample by employing the adsorption theories of Brunauer, Emmett and Teller (BET).
as §1

[4] = Contact angle by sessile drop method (water); details: ambient conditions, trihydrate
Protocol: Contact angles of amoxicillin trihydrate powder samples were measured by the sessile drop method using an Drop Shape Analyzer instrument (FTA 1000, First Ten Angstrom, Virginia, USA). Powder samples were mounted on double sided adhesive tape adhered to a glass slide and excess powder was removed by tapping the slide. A drop of probe liquid (water) was dispersed onto the sample surface and video images were captured by the FTA image analyzer. The contact angle was calculated by the instrument by fitting a mathematical expression to the shape of the drop followed by calculating the slope of the tangent to the drop at the liquid-solid-vapor interface line. The surface tension of ultrapure ELGA laboratory water was measured to be 73±0.5 mN·m^−1 at 25° C. All measurements were performed in air under ambient conditions and an average of four measurements was reported in the below Examples.
as §1

SMILES: CC1(C)S[C@@H]2[C@H](NC(=O)[C@H](N)c3ccc(O)cc3)C(=O)N2[C@H]1C(=O)O.O.O.O [entry 3, amoxicillin trihydrate]
- Average Particle Size D10 [1]: 13.1 μm
- Average Particle Size D50 [1]: 39.3 μm
- Average Particle Size D90 [1]: 91.7 μm
- Average Particle Size D100 [1]: 230.1 μm
- Amoxicillin released in solution Mean ([2]; 0 min): 0%
- Amoxicillin released in solution #1 ([2]; 0 min): 0%
- Amoxicillin released in solution #2 ([2]; 0 min): 0%
- Amoxicillin released in solution #3 ([2]; 0 min): 0%
- Amoxicillin released in solution Mean ([2]; 1 min, trihydrate): 59.73%
- Amoxicillin released in solution #1 ([2]; 1 min, trihydrate): 57.32%
- Amoxicillin released in solution #2 ([2]; 1 min, trihydrate): 60.63%
- Amoxicillin released in solution #3 ([2]; 1 min, trihydrate): 61.23%
- Amoxicillin released in solution Mean ([2]; 3 min, trihydrate): 97.65%
- Amoxicillin released in solution #1 ([2]; 3 min, trihydrate): 96.94%
- Amoxicillin released in solution #2 ([2]; 3 min, trihydrate): 97.25%
- Amoxicillin released in solution #3 ([2]; 3 min, trihydrate): 98.77%
- Amoxicillin released in solution Mean ([2]; 5 min, trihydrate): 99.78%
- Amoxicillin released in solution #1 ([2]; 5 min, trihydrate): 99.68%
- Amoxicillin released in solution #2 ([2]; 5 min, trihydrate): 100.87%
- Amoxicillin released in solution #3 ([2]; 5 min, trihydrate): 98.80%
- Amoxicillin released in solution Mean ([2]; 10 min, trihydrate): 99.25%
- Amoxicillin released in solution #1 ([2]; 10 min, trihydrate): 99.06%
- Amoxicillin released in solution #2 ([2]; 10 min, trihydrate): 99.42%
- Amoxicillin released in solution #3 ([2]; 10 min, trihydrate): 99.27%
- Amoxicillin released in solution Mean ([2]; 15 min, trihydrate): 100.29%
- Amoxicillin released in solution #1 ([2]; 15 min, trihydrate): 100.69%
- Amoxicillin released in solution #2 ([2]; 15 min, trihydrate): 100.64%
- Amoxicillin released in solution #3 ([2]; 15 min, trihydrate): 99.55%
- Amoxicillin released in solution Mean ([2]; 30 min, trihydrate): 99.18%
- Amoxicillin released in solution #1 ([2]; 30 min, trihydrate): 99.21%
- Amoxicillin released in solution #2 ([2]; 30 min, trihydrate): 99.18%
- Amoxicillin released in solution #3 ([2]; 30 min, trihydrate): 99.14%
- Amoxicillin released in solution Mean ([2]; 60 min, trihydrate): 100.16%
- Amoxicillin released in solution #1 ([2]; 60 min, trihydrate): 99.14%
- Amoxicillin released in solution #2 ([2]; 60 min, trihydrate): 100.41%
- Amoxicillin released in solution #3 ([2]; 60 min, trihydrate): 100.92%
- Amoxicillin released in solution Mean ([2]; 90 min, trihydrate): 99.44%
- Amoxicillin released in solution #1 ([2]; 90 min, trihydrate): 99.58%
- Amoxicillin released in solution #2 ([2]; 90 min, trihydrate): 99.28%
- Amoxicillin released in solution #3 ([2]; 90 min, trihydrate): 99.46%
- Surface Area Mean ± SD (n = 3) [3]: 0.72 ± 0.16 m^2 · g^−1
- Contact Angle Mean ± SD (n = 4) [4]: 71.54 ± 1.08

SMILES: CC1(C)S[C@@H]2[C@H](NC(=O)[C@H](N)c3ccc(O)cc3)C(=O)N2[C@H]1C(=O)O.O.O.O [entry 4, amoxicillin trihydrate]
- Average Particle Size D10 [1]: 1.9 μm
- Average Particle Size D50 [1]: 10.1 μm
- Average Particle Size D90 [1]: 23.1 μm
- Average Particle Size D100 [1]: 44.6 μm
- Amoxicillin released in solution Mean ([2]; 0 min): 0%
- Amoxicillin released in solution #1 ([2]; 0 min): 0%
- Amoxicillin released in solution #2 ([2]; 0 min): 0%
- Amoxicillin released in solution #3 ([2]; 0 min): 0%
- Amoxicillin released in solution Mean ([2]; 1 min, trihydrate): 56.64%
- Amoxicillin released in solution #1 ([2]; 1 min, trihydrate): 54.49%
- Amoxicillin released in solution #2 ([2]; 1 min, trihydrate): 57.74%
- Amoxicillin released in solution #3 ([2]; 1 min, trihydrate): 57.67%
- Amoxicillin released in solution Mean ([2]; 3 min, trihydrate): 77.11%
- Amoxicillin released in solution #1 ([2]; 3 min, trihydrate): 76.32%
- Amoxicillin released in solution #2 ([2]; 3 min, trihydrate): 76.89%
- Amoxicillin released in solution #3 ([2]; 3 min, trihydrate): 78.12%
- Amoxicillin released in solution Mean ([2]; 5 min, trihydrate): 84.17%
- Amoxicillin released in solution #1 ([2]; 5 min, trihydrate): 85.25%
- Amoxicillin released in solution #2 ([2]; 5 min, trihydrate): 82.78%
- Amoxicillin released in solution #3 ([2]; 5 min, trihydrate): 84.47%
- Amoxicillin released in solution Mean ([2]; 10 min, trihydrate): 87.43%
- Amoxicillin released in solution #1 ([2]; 10 min, trihydrate): 88.15%
- Amoxicillin released in solution #2 ([2]; 10 min, trihydrate): 86.80%
- Amoxicillin released in solution #3 ([2]; 10 min, trihydrate): 87.34%
- Amoxicillin released in solution Mean ([2]; 15 min, trihydrate): 89.71%
- Amoxicillin released in solution #1 ([2]; 15 min, trihydrate): 90.61%
- Amoxicillin released in solution #2 ([2]; 15 min, trihydrate): 89.05%
- Amoxicillin released in solution #3 ([2]; 15 min, trihydrate): 89.49%
- Amoxicillin released in solution Mean ([2]; 30 min, trihydrate): 93.77%
- Amoxicillin released in solution #1 ([2]; 30 min, trihydrate): 93.27%
- Amoxicillin released in solution #2 ([2]; 30 min, trihydrate): 95.75%
- Amoxicillin released in solution #3 ([2]; 30 min, trihydrate): 91.85%
- Amoxicillin released in solution Mean ([2]; 60 min, trihydrate): 98.50%
- Amoxicillin released in solution #1 ([2]; 60 min, trihydrate): 97.15%
- Amoxicillin released in solution #2 ([2]; 60 min, trihydrate): 99.70%
- Amoxicillin released in solution #3 ([2]; 60 min, trihydrate): 98.65%
- Amoxicillin released in solution Mean ([2]; 90 min, trihydrate): 99.31%
- Amoxicillin released in solution #1 ([2]; 90 min, trihydrate): 97.76%
- Amoxicillin released in solution #2 ([2]; 90 min, trihydrate): 99.52%
- Amoxicillin released in solution #3 ([2]; 90 min, trihydrate): 100.66%
- Surface Area Mean ± SD (n = 3) [3]: 1.78 ± 0.03 m^2 · g^−1
- Contact Angle Mean ± SD (n = 4) [4]: 110.68 ± 0.23
